From ChEMBL document CHEMBL5465560, “Selectivity Literature for EUbOPEN Chemogenomic Library” (2024) come the findings set out here.

The target in test [1] is MAP kinase-activated protein kinase 3 (Homo sapiens) (UniProt Q16644). Nature of the test: Selectivity interaction (Kinase panel (Z-LYTE Assay)) EUB0001632a MAPKAPK3. The following applies: at 10 µM.
Test [2] has as its target Tyrosine-protein kinase BTK (Homo sapiens, UniProt Q06187). Nature of the test: Selectivity interaction (KinomeScan (DiscoverX)) EUB0000595a BTK. The following applies: at 10 µM.
Test [3] relates to T1, Receptor-type tyrosine-protein kinase FLT3 (Homo sapiens), P36888 [D835H].
T1 sequence (whole entry): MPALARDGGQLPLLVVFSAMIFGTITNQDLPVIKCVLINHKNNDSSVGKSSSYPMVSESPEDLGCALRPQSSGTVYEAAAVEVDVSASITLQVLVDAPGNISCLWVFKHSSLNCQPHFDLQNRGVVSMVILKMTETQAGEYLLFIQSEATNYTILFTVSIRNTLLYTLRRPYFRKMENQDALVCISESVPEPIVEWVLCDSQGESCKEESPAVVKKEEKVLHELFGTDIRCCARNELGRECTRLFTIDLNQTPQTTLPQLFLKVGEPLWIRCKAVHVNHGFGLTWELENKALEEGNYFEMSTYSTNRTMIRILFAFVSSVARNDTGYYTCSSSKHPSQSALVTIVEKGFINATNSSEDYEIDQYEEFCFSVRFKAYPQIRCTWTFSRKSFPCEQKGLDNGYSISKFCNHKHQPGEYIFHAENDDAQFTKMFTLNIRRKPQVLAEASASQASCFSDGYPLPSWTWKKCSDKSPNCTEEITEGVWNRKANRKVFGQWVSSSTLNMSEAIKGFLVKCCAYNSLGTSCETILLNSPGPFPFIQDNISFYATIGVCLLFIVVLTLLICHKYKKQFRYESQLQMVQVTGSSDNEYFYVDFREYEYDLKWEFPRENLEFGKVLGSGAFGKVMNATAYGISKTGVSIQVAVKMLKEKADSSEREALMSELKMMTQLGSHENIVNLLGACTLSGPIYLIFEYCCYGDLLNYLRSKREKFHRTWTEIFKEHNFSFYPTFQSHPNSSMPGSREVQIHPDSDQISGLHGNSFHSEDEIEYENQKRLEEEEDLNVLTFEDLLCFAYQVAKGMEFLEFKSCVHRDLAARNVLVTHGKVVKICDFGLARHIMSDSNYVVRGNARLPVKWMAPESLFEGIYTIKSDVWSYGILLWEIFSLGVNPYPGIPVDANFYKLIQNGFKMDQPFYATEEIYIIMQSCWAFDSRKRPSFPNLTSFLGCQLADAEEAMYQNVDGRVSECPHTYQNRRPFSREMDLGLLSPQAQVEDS
The experiment in a line: Selectivity interaction (KinomeScan (DiscoverX)) EUB0000695a FLT3. The note with it: at 100 nM.

Test [4] has as its target T2, Ephrin type-B receptor 6 (Homo sapiens) (UniProt O15197).
T2 sequence (whole entry): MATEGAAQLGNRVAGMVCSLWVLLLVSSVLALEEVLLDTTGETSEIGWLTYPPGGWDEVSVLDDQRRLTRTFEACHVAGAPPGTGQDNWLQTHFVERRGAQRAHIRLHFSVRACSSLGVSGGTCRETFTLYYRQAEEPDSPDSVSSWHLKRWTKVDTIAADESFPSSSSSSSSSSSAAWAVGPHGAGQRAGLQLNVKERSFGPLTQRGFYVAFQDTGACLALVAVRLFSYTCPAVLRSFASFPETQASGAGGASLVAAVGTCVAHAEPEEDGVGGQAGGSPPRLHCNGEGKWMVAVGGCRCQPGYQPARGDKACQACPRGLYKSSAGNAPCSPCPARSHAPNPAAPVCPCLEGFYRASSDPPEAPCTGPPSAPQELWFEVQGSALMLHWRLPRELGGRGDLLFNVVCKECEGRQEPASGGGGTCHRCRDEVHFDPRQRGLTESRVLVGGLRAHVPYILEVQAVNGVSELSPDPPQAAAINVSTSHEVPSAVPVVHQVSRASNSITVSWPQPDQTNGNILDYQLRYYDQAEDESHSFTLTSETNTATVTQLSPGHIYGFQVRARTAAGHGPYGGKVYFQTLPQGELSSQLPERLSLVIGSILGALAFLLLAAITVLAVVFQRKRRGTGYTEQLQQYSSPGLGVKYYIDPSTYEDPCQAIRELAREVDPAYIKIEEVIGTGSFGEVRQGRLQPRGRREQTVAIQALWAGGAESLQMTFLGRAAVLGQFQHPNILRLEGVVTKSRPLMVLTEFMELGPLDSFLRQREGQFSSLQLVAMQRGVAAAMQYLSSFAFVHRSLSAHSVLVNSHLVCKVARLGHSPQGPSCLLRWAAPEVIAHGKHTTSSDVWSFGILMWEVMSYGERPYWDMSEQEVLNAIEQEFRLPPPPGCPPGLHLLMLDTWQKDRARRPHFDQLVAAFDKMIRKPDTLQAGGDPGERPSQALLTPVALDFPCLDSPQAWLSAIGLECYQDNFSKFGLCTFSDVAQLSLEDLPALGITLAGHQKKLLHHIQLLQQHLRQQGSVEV
Nature of the test: Selectivity interaction (KinomeScan (DiscoverX)) EUB0000607a EPHB6. The following applies: at 10 µM.

The target of test [5] is Cyclin-dependent kinase 16 (Homo sapiens) (UniProt Q00536). Nature of the test: Selectivity interaction (ActivX KiNativ screen (kinase selectivity in THP-1 cell lysates)) EUB0000639a CDK16. It counts as subcellular. The following applies: lysate, at 0.04 µM.
Chain of Cyclin-dependent kinase 16 (Homo sapiens) (Q00536 whole entry): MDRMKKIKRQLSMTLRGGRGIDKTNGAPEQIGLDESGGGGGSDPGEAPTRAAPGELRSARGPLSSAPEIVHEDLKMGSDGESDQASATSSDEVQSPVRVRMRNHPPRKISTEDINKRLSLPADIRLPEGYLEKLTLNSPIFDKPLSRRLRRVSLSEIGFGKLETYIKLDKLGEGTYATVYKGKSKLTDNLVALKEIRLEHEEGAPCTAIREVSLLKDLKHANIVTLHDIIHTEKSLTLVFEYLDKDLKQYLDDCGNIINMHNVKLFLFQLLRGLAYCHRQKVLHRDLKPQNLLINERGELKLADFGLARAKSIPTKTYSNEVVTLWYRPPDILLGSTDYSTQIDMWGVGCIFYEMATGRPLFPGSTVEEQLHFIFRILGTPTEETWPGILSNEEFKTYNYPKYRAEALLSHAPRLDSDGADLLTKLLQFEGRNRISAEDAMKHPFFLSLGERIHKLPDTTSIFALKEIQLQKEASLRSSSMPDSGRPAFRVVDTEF

Chain of MAP kinase-activated protein kinase 3 (Homo sapiens) (Q16644 whole entry, looked up): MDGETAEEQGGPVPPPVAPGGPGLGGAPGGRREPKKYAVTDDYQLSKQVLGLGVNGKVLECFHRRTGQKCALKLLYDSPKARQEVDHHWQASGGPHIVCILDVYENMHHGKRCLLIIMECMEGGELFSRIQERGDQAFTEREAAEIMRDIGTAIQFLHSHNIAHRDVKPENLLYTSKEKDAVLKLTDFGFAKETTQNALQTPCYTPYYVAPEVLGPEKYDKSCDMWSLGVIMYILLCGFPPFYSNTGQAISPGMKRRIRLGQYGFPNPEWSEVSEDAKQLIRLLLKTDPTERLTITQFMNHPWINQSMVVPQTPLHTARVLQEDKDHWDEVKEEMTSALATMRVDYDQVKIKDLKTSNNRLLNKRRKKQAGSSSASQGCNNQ
Chain of Tyrosine-protein kinase BTK (Q06187 whole entry): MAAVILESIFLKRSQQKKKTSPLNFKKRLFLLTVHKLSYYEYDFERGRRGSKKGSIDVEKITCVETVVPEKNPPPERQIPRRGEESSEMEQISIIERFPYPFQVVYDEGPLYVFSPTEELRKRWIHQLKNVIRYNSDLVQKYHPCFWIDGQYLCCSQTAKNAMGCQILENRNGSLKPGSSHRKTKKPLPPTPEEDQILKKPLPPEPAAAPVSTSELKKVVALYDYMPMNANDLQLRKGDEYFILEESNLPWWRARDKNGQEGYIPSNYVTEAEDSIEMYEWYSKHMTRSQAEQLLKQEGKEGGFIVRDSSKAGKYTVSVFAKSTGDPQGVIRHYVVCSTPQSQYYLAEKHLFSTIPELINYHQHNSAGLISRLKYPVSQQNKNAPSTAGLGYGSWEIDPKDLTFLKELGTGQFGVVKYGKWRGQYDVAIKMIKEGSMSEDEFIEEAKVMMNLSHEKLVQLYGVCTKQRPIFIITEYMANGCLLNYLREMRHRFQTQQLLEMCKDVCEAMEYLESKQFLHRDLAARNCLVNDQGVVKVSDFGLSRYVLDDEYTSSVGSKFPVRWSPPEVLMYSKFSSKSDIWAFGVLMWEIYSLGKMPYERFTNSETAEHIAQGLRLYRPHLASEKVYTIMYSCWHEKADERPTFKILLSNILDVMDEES

Compound `Cn1cc(-n2cnc3c(NCc4nc5cc(Cl)c(Cl)cc5[nH]4)nc(N4CCOCC4)nc32)cn1` gave a % of control in test [1] of 2.63%.
In turn, `COCC(=O)NC/C=C/c1ccc2ncnc(Nc3ccc(Oc4ccc(C)nc4)c(C)c3)c2c1` [CP-724714] displayed a % of control in test [2] of 68%.
Regarding `Cc1cc(F)c(C(=O)Nc2cccc(-c3nncn3C(C)C)n2)cc1-n1cnc(C2CC2)c1`, the % of control in test [3] came out at 100%.
Compound `CNC(=O)Nc1ccc(-c2nc(N3CC4CCC(C3)O4)c3cnn(C4CCC5(CC4)OCCO5)c3n2)cc1` registered a % of control in test [4] of 83%.
Take `CC[C@@H]1[C@H](F)C(=O)N[C@@H]1COc1nccc2cc(C(N)=O)c(OC)cc12` [ZIMLOVISERTIB]: in test [5], the % of inhibition was found to be 0.5%.
